# Data taken from patent US6551793B1, “Carotenoid-associated proteins useful for high carotenoid accumulation and production in plants and other organisms” (Yissum Research Development Company of the Hebrew …, priority 1996, dated 2003).
# B1: CHRC upstream region: sequenced upstream region of the cucumber CHRC gene with strong promoter activity, SEQ ID NO:10 (nucleic acid, listed as Cucumis sativus)
# DNA: AAGCTTTACAAATTAGGGTTACTTTATTCATTTTCATCCATTCTCTTTATTGTTAAATTTTGTACATTTATTCAATAATATTATATGTTTATTACAAATTCTCACTTTCTTATTCATACCTATTCACTCAAGCCTTTACCATCTTCCTTTTCTATTTCAATACTATTTCTACTTCATTTTTCACGTTTTTAACATCTTTCTTTATTTCTTGTCCACTTCGTTTAGGGATGCCTAATGTCCCAAATTTCATCTCTCGTAGTAACACAAAACCAATGTAATGCTACTTCTCTCTACATTTTTAATACAAATAAAGTGAAACAAAATATCTATAAATAAACAAATATATATATTTTGTTAGACGCTGTCTCAACCCATCAATTAAAAAATTTTGTTATATTTCTACTTTACCTACTAAATTTGTTTCTCATATTTACCTTTTAACCCCCACAAAAAAAAATTATAAAAAAGAAAGAAAAAAGCTAAACCCTATTTAAATAGCTAACTATAAGATCTTAAAATTATCCTCATCAGTGTATAGTTTAATTGGTTATTAACTTATAACATTATATATCTATGACATATACTCTCTCCTAGCTATTTCTCACATTTTTTAACTTAAGAAAATAGTCATAACATAGTCTAAAATTCAAACATCCACATGCTCTAATTTGATTAACAAAAAGTTAGAAATATTTATTTAAATAAAAAAGACTAATAAATATATAAAATGAATGTTCATACGCAGACCCATTTAGAGATGAGTATGCTTTCACATGCTGAGATTATTTTCAAAACTAAGGTTGTAGCAATATTAAATCAATAAAATTATTATAAATAACAAAATTAACCTGCTCGTGTTTGCTGTATATGGGAGGCTACAAAATAAATTAAACTAAAGATGATTATGTTTTAGACATTTTTTCTATCTGTATTAGTTTATACATATTAATTCAGGAGCTGCACAACCCAATTCTATTTTCGTTCCTTGGTGGCTGGGTTTCTCACAAGGTTCAATAGTCAATATTAGGTTTTATTGGACTTTTAATAGTATCAAACAAATCTATGTGTGAACTTAAAAATTGTATTAAATATTTAGGGTAACCTGTTGCCGTTTTTAGAATAATGTTTCTTCTTAATACACGAAAGCGTATTGTGTATTCATTCATTTGGCGCCTCACATGCTTCGGTTGGCTCGCTTTAGTCTCTGCCTTCTTTGTATATTGTACTCCCCCTCTTCCTATGCCACGTGTTCTGAGCTTAACAAGCCACGTTGCGTGCCATTGCCAAACAAGTCATTTTAACTTCACAAGGTCCGATTTGACCTCCAAAACAACGACAAGTTTCCGAACAGTCGCGAAGATCAAGGGTATAATCGTCTTTTTGAATTCTATTTCTCTTTATTTAATAGTCCCTCTCGTGTGATAGTTTTTAAAAGATTTTTAAAACGTAGCTGCTGTTTAAGTAAATCCCAGTCCTTCAGTTTGT
# Tests used:
# Assay type in all cases: cell-based, Cucumis sativus
# CHRD = assay: In vitro flower bud culture, Western blot of CHRD in corollas
# Experimental: CHRD levels in corollas were analyzed by western blotting (10 μg of total protein per lane) using antibodies against CHRD and horseradish peroxidase anti-rabbit IgG in an enhanced chemiluminescence detection system. FIG. 14B is a Western blot analysis of corollas (50 μg of total protein per lane) cultured for the indicated periods with (+) or without (−) GA3. The blot was decorated with antibodies against CHRD and alkaline phosphatase anti-rabbit 1 gG.
# (§1) In FIG. 15A, antibodies against CHRD or CHRC were used in a western blot analysis of CHRD and CHRC levels, respectively, in corollas cultured for 72 hours in the presence (E) or absence (C) of ethylene (50 μg of total protein per lane). In FIG. 15B, flowers were enclosed in aluminum foil in the greenhouse for 3 days and CHRD levels in etiolated (D) and control, nonetiolated (L) corollas were analyzed by western blotting (50 μg of total protein per lane).
# (§2) This example describes plant material and conditions for in vitro flower bud culture. C. sativus L. plants (cultivar Shimahon, obtained from Zeraim Gadera, Israel) were grown under standard greenhouse conditions. In vitro culture of flower buds was performed at 23° C., under constant light from cool white fluorescent lamps with a photosynthetic photon flux density of 80 μmol/m^2 g, as described previously. Briefly, buds at developmental stage 1 (˜8 mm in length, 120 hours before anthesis) were collected and rinsed several times with sterile water. Buds were then placed for 24 hours on a perforated Parafilm (American National Can, Greenwich, Conn.) covering a Petri dish filled with double-distilled sterile water, such that only the bases of the buds were in contact with the liquid. Following equilibration, buds were transferred to a fresh Petri dish (zero time for the experiments) and treated with GA3, ABA, paclobutrazol, or CHX, as specified in the figure legends.
# CHRD protein was isolated from Cucumis sativus as a minor component, immunologically characterised and analyzed in terms of the regulation of its expression by developmental signals using methods and conditions described above for CHRC. […] Carotenoids are known to accumulate in dark.
# CHRC protein = assay: In vitro flower bud culture, Western blot of CHRC protein in corollas
# Experimental: as §1, §2
# Psy mRNA = assay: In vitro flower bud culture, Northern blot of Psy mRNA in corollas
# Experimental: (§3) Young flower buds were cultured in vitro in the presence (GA) or the absence (C) of 100 μM GA3 for up to 48 hours. Northern and Western blot analyses of corollas, cultured for the indicated periods of time, were performed. The Northern blots (25 μg total RNA/lane) were hybridized with ^32P-labeled DNA inserts from CHRC (CHRC), […] (Psy), and 18s rDNA (18S). Western blot analysis (bottom panel of A) was performed using antibodies against CHRC protein (25 μg total protein/lane). The results of the CHRC Northern blot analyses are also shown graphically relative to the mRNA level of the untreated corollas at zero time (0) (arbitrary value of 1).
# (§4) Flower buds were cultured in the presence of 100 μm GA3 (GA), 100 μg/ml paclobutrazol following 2 hours of pretreatment with 100 μg/ml paclobutrazol (P), 100 μg/ml paclobutrazol +100 μm GA3 following 2 hours of pretreatment with 100 μg/ml paclobutrazol (P/GA), 100 μM ABA (ABA), or no phytohormones (C). Total RNA was extracted from corollas after 2 hours of treatment. Northern blot analyses were performed and probed as described in the legend to FIG. 7.
# (§5) Total RNA and protein were extracted from cucumber corollas of flower buds cultured for 6 hours in the presence of 100 μM GA3 (GA), 50 μM CHX following 2 hours of pretreatment with 50 μM CHX (CHX/GA), or no phytohormones (C). Northern (CHRC, Psy, and 18S) and Western (bottom panel) blot analyses were performed as described above.
# as §2, with “Following equilibration, buds were transferred to a fresh Petri dish (zero time for the experiments) and treated with GA3, ABA, paclobutrazol, or CHX, as specified in the figure legends.” left out
# This example describes conditions used for RNA isolation and Northern blot analysis. […] Autoradiograms were quantified by scanning suitably exposed films in a densitometer (Molecular Dynamics, Sunnyvale, Calif.). The amount of RNA loaded onto the gels was standardized by optical measurement, by quantitation of the ethidium bromide fluorescence of cytoplasmic rRNA. and by the level of hybridization with a DNA fragment coding for cytoplasmic 18S RNA.
# CHRC mRNA = assay: In vitro flower bud culture, Northern blot of CHRC mRNA in corollas
# Experimental: as §3, §4, §5
# In FIG. 10, flower buds were cultured for 2 hours without (0) or with various concentrations of GA3. Total RNA was isolated from corollas, and a Northern blot was probed as above. The results of the CHRC Northern blot analyses are also shown graphically relative to the mRNA level of control corollas cultured without GA3 (arbitrary value of 1).
# as §2
# This example describes conditions used for RNA isolation and Northern blot analysis. Total RNA from corollas of cucumber flower buds was isolated as described previously. RNA (15 and 25 μg) was fractionated through a 1.2% formaldehyde gel and transferred to a Hybond-N^− filter (Amersham Corp.). A random priming kit (Boehringer Mannheim) was used to radioactively labeled DNA probes. The blots were hybridized with ^32P-labeled cucumber CHRC cDNA (Vishnevetsky, et al., Plant Journal, 10: 1111-1118 (1996)) and reprobed with melon phytoene synthase (PSY) cDNA (MEL5), provided by D. Grierson of the Nottingham University, UK. The hybridization for analysis of CHRC expression was carried out in 0.263 M Na2HPO4, 7% SDS, […], 1% BSA for 16 hours at 60° C., and the washes were performed in 2×SSC/0.1% SDS at 50° C. followed by 2×SSC/0.1% SDS at 55° C., for 20 minutes each. Hybridization with the MEL5 probe was carried out at 55° C. using the same procedure. Following the hybridization, the blots were washed in 5×SSC/0.1% SDS at 45° C. for 20 minutes followed by 5×SSC/0.1% SDS at 50° C. and 2×SSC/0.1% SDS at 50° C. for 20 minutes each. […]
# [1] = system: GUS reporter gene expression; assay: Transient expression of reporter gene GUS under CHRC promoter versus 35S CaMV promoter
# Source text: FIGS. 1A and 1B show comparative photographs of cucumber flowers petals showing transient expression of the reporter gene GUS using CHRC promoter (FIG. 1A) or known 35S CaMV promoter (FIG. 1B).
# The promoter containing CHRC upstream region was about 70% as efficient as the 35S CaMV promoter in cucumber petals and about 60% as efficient in leaves, fruits and stems. The CHRC promoter's efficiency in another representative of the cucurbit family, namely in melon, was similar to the efficiency found in cucumber.
# In cucumber-petals, the CHRC upstream region was about 70% as efficient as the 35S CaMV promoter. In leaves, fruits and stems, the CHRC promoter was about 60% as efficient as 35S CaMV. Promoter's efficiency in melon was similar to that observed in cucumber.
# [2] = ethylene, corollas cultured for 72 hours
# [3] = 50 μM CHX with 100 μM GA3, 6 hours
# [4] = dose response 1×10^−8 to 1×10^−4 M GA3, 2 hours
molecule,measurement,setting,value
C=C [ethylene],CHRD level per unit protein following treatment,CHRD; [2],down-regulated
same,CHRC level in treated corollas versus controls,CHRC protein; [2],lower than that in controls
"C[C@@H]1C[C@@H]([C@H](O)CC2CC(=O)NC(=O)C2)C(=O)[C@@H](C)C1 [CHX, cycloheximide]",Effect on increase in CHRC protein levels in GA3-treated buds,CHRC protein; [3],successfully abolished
same,Effect on Psy mRNA levels,"Psy mRNA; 50 μM CHX, 6 hours",unaffected
same,Effect on up-regulation of CHRC mRNA by GA3,CHRC mRNA; [3],did not prevent
same,Effect of CHX alone on CHRC transcript accumulation,CHRC mRNA; CHX alone,did not affect
"C=C1C[C@]23C[C@@]1(O)CC[C@H]2[C@@]12C=C[C@H](O)[C@@](C)(C(=O)O1)[C@H]2[C@@H]3C(=O)O [GA3, Gibberellin A3]",CHRD level in treated versus untreated buds,"CHRD; GA3, after only 2 hours",markedly higher
same,CHRD accumulation with GA3 in the culture medium,"CHRD; GA3, in vitro bud culture, 72 hours",enhanced accumulation
same,CHRC per unit of protein in treated versus control corollas,"CHRC protein; 100 μM GA3, after 2 hours of treatment",approximately 2.5 times
same,Effect on Psy mRNA levels,"Psy mRNA; GA3 treatment, first 45 hours of corolla development",not affected
same,CHRC mRNA level in treated versus control corollas,"CHRC mRNA; 100 μM GA3, after 20 minutes of treatment",approximately twice as high
same,CHRC transcript accumulation with exogenous GA3 added to paclobutrazol,CHRC mRNA; 100 μg/ml paclobutrazol + 100 μm GA3 after 2 hours paclobutrazol pretreatment,up-regulated CHRC transcript accumulation to the level of GA3-treated corollas
same,Concentration at which CHRC was strongly up-regulated,CHRC mRNA; [4],10^−5−10^−4 M
same,Lowest concentration sufficient to markedly elevate basal CHRC mRNA levels,CHRC mRNA; [4],10^−7 M
same,Time to detectable increase in CHRC mRNA level,"CHRC mRNA; response to GA3, early time points (data not shown)",10 to 20 min
CC(C)(C)[C@@H](O)[C@@H](Cc1ccc(Cl)cc1)n1cncn1 (racemic) [paclobutrazol],"CHRD level per unit protein, down-regulation compared with control untreated corollas",CHRD; flower buds cultured for 72 hours,4.8±0.2 times
same,Effect on Psy mRNA levels,"Psy mRNA; 100 μM ABA or 100 μg/ml paclobutrazol, 2 hours of treatment",Neither ABA nor paclobutrazol markedly affected
same,Decrease in CHRC mRNA levels relative to control untreated corollas,"CHRC mRNA; 100 μg/ml paclobutrazol after 2 hours of pretreatment, 2 hours of treatment",4 fold
B1,Efficiency relative to the 35S CaMV promoter,"[1]; cucumber leaves, fruits and stems",about 60%
same,Efficiency relative to the 35S CaMV promoter,[1]; cucumber petals,about 70%
